Like-named read-outs stand apart in the source and are kept apart here.

These results are taken from patent publication US10723727B2, “Tubulysin analogs and methods for their preparation” (priority 2016, dated 2020).

Assay [1] concerns MDA-MB-361-DYT2 (breast cancer) cells. Briefly: In vitro cell assay (MTS cell viability), MDA-MB-361-DYT2. Format: cell-based. Particulars: free compounds, 96 hours after treatment. Here is the method: (§1) In Vitro Cell Assay Procedure
(§2) Target expressing (BT474 (breast cancer), N87 (gastric cancer), HCC1954 (breast cancer), MDA-MB-361-DYT2 (breast cancer)) or non-expressing (HT-29) cells were seeded in 96-well cell culture plates for 24 hours before treatment. Cells were treated with 3-fold serially diluted antibody-drug conjugates or free compounds (i. e. no antibody conjugated to the drug) in duplicate at 10 concentrations. Cell viability was determined by CellTiter 96® AQueous One Solution Cell Proliferation MTS Assay (Promega, Madison Wis.) 96 hours after treatment. Relative cell viability was determined as percentage of untreated control. IC50 values were calculated using a four parameter logistic model #203 with XLfit v4. 2 (IDBS, Guildford, Surry, UK).

Assay [2] concerns HT-29 cells. Kind of assay: In vitro cell assay (MTS cell viability), HT-29 (target non-expressing). Format: cell-based. The following applies: free compounds, 96 hours after treatment, read-out: HT29 IC50. The protocol: as §1, §2
For assay [3], the system named is N87 (gastric cancer) cells. Kind of assay: In vitro cell assay (MTS cell viability), N87. Particulars: free compounds, 96 hours after treatment. Format: cell-based. Here is the method: as §1, §2
The target of assay [4] is T1, tubulin/RB3-stathmin-like-domain (RB3-SLD-tdm) complex (Sus scrofa, UniProt P02550+P02554).
T1 construct: purchased Cytoskeleton, Inc. T240; host or cells: RB3-SLD was made in house in E. coli
Briefly: Tubulin Peptide-Binding Site Competition Assay (fluorescence polarization). Particulars: FP competition with BODIPY-labeled vinca peptide probe; read after five hours at 22° C.; read-out: Tubulin Peptide-Binding Site Competition Assay IC50. The arrangement: species or system Porcine. Here is the method:
Tubulin Peptide-Binding Site Competition Assay
Tubulin binding potency was measured for payloads or cysteine-capped linker-payloads using a fluorescence polarization (FP) competition assay. The binding of a BODIPY-labeled vinca peptide probe (# B31) to a tubulin/RB3-stathmin-like-domain (RB3-SLD-tdm) complex generates a high FP signal, which can be decreased when mixing with test compounds that compete with the FP probe. The order of addition for the reagents in the FP assay was designed to pre-mix the FP probe with various concentrations of the test compound before mixing them with the tubulin/RB3-SLD-dm complex. The final assay concentrations of the probe, tubulin and RB3-SLD-dm were 3, 6, and 100 nM, respectively. IC50 for each test compound is obtained by fitting the dose-dependent FP signal change using GraphPad Prism version 5 software (La Jolla, Calif.) while Ki is converted from the IC50 using the equations described previously (Nikolovska-Coleska et al., 2004). The FP signals were measured on an Infinite M1000 (Tecan, San Jose, Calif.) using ProxiPlate-384 F Plus, Black (Perkin-Elmer, Waltham, Mass., Cat #6008260) with 15 μL of solution per well. Sample dilution and mixing were done using a Beckman Biomek XF (Brea, Calif.). Porcine tubulin was purchased from Cytoskeleton, Inc. (Denver, Colo., Cat #T240) and RB3-SLD was expressed in E. coli. and purified on Q and then Superdex75 columns. The FP assay test for each compound was run in duplicates by mixing 6 μL of solution 1 containing 2.5× test compound (2.5× serial dilution from 7.8 μM maximum concentration, 11 total concentrations) and 7.5 nM of the FP probe in 80 mM PIPES, pH 7.0, 0.02% Tween 20, 2 mM MgCl2, 1 mM EGTA and 3% DMSO with 9 μL of solution 2 containing […] porcine tubulin and 167 nM of RB3-SLD-dm peptide ([…]-[…]) on ProxiPlate-384 micro-plates.
(In fluorescence polarisation assays a small probe gives low polarisation when free and higher when bound to something large.)

Regarding `CCNC(=O)O[C@H](C[C@H](C(C)C)N(C)C(=O)[C@@H](NC(=O)C1(C)CCCCN1C)[C@@H](C)CC)c1nc(C(=O)N[C@@H](Cc2ccc(N)cc2)C[C@H](C)C(=O)O)cs1` (stereo in doubt) [#B24, (2S,4R)-5-(4-aminophenyl)-4-{[(2-{(1R,3R)-3-[(N-{[(2R)-1,2-dimethylpiperidin-2-yl]carbonyl}-L-isoleucyl)(methyl)amino]-1-[(ethylcarbamoyl)oxy]-4-methylpentyl}-1,3-thiazol-4-yl)carbonyl]amino}-2-methylpentanoic acid], the IC50 in assay [1] was found to be 1.24 nM; in assay [2] it was 1.14 nM; in assay [3] it was 1.22 nM.
In the case of `CCNC(=O)O[C@H](C[C@H](C(C)C)N(C)C(=O)[C@@H](NC(=O)[C@@]1(C)CCCN1C)[C@@H](C)CC)c1nc(C(=O)N[C@H](C(=O)OC)C(C)O)cs1` (stereo partly drawn) [#B22, 1,2-dimethyl-D-prolyl-N-{(1R,3R)-1-[(ethylcarbamoyl)oxy]-1-(4-{[(2S)-3-hydroxy-1-methoxy-1-oxobutan-2-yl]carbamoyl}-1,3-thiazol-2-yl)-4-methylpentan-3-yl]-N-methyl-L-isoleucinamide], the IC50 in assay [1] (96 h) was determined as 11.2 nM; in assay [2] (Homo sapiens, HT-29, 96 h), 14.4 nM; in assay [3] (96 h) it was 12.1 nM.
As for `CC[C@H](C)[C@H](NC(=O)[C@@]1(C)CCCN1C)C(=O)N(C)[C@H](C[C@H](O)c1nc(C(=O)N[C@@H](Cc2ccc(N)cc2)C[C@H](C)C(=O)O)cs1)C(C)C` [#B33, 1,2-dimethyl-D-prolyl-N-{(1S,3R)-1-(4-{[(2R,4S)-1-(4-aminophenyl)-4-carboxypentan-2-yl]carbamoyl}-1,3-thiazol-2-yl)-1-hydroxy-4-methylpentan-3-yl]-N-methyl-L-isoleucinamide], the IC50 is greater than 1000 nM in assay [1] (96 h); greater than 1000 nM in assay [2] (Homo sapiens, HT-29, 96 h); greater than 1000 nM in assay [3] (96 h).
`CCNC(=O)N[C@H](C[C@H](C(C)C)N(C)C(=O)[C@@H](NC(=O)[C@@]1(C)CCCN1C)[C@@H](C)CC)c1nc(C(=O)N[C@@H](Cc2ccc(N)cc2)C[C@H](C)C(=O)O)cs1` [#B29, 1,2-dimethyl-D-prolyl-N-{(1R,3R)-1-(4-{[(2R,4S)-1-(4-aminophenyl)-4-carboxypentan-2-yl]carbamoyl}-1,3-thiazol-2-yl)-1-[(ethylcarbamoyl)amino]-4-methylpentan-3-yl}-N-methyl-L-isoleucinamide]: the IC50 is 24.9 nM in assay [1] (96 h); 24.5 nM in assay [2] (Homo sapiens, HT-29, 96 h); 28.6 nM in assay [3] (96 h).
Turning to `CC[C@H](C)[C@H](NC(=O)C1(N(C)C)CCCC1)C(=O)N(C)[C@H](C[C@@H](OC(C)=O)c1nc(C(=O)N[C@@H](Cc2ccccc2)C[C@H](C)C(=O)OC)cs1)C(C)C` [#B1, methyl (2S,4R)-4-{[(2-{(1R,3R)-1-(acetyloxy)-3-[(N-{[1-(dimethylamino)cyclopentyl]carbonyl}-L-isoleucyl)(methyl)amino]-4-methylpentyl}-1,3-thiazol-4-yl)carbonyl]amino}-2-methyl-5-phenylpentanoate], the IC50 in assay [1] (96 h) came to 19 nM; in assay [4], 250 nM; in assay [3] (96 h), 18.9 nM.
On to `CC[C@H](C)[C@H](NC(=O)[C@]1(C)CCCN1C)C(=O)N(C)[C@H](C[C@@H](OC(C)=O)c1nc(C(=O)N[C@@H](Cc2ccccc2)C[C@H](C)C(=O)OC)cs1)C(C)C` [#B2, 1,2-dimethyl-L-prolyl-N-[(1R,3R)-1-(acetyloxy)-1-(4-{[(2R,4S)-5-methoxy-4-methyl-5-oxo-1-phenylpentan-2-yl]carbamoyl}-1,3-thiazol-2-yl)-4-methylpentan-3-yl]-N-methyl-L-isoleucinamide], for which the IC50 in assay [1] (96 h) came out at 5.54 nM; in assay [4], 92.2 nM; in assay [3] (96 h), 11.8 nM.
Consider `CC[C@H](C)[C@H](NC(=O)[C@H]1CCCCN1C)C(=O)N(C)[C@H](C[C@@H](OC(C)=O)c1nc(C(=O)NCC2OCCc3ccccc32)cs1)C(C)C` (stereo partly drawn) [#B38, (1R,3R)-1-{4-[(3,4-dihydro-1H-isochromen-1-ylmethyl)carbamoyl]-1,3-thiazol-2-yl}-4-methyl-3-[methyl(N-{[(2R)-1-methylpiperidin-2-yl]carbonyl}-L-isoleucyl)amino]pentyl acetate], for which the IC50 in assay [1] (96 h) amounted to 0.925 nM; in assay [4] it was 4.8 nM; in assay [3] (96 h), 3.06 nM.
For `CC[C@H](C)[C@H](NC(=O)[C@H]1CCCCN1C)C(=O)N(C)[C@H](C[C@@H](OC(C)=O)c1nc(C(=O)N[C@H](CNS(C)(=O)=O)Cc2ccccc2)cs1)C(C)C` [#B36, (1R,3R)-4-methyl-3-[methyl(N-{[(2R)-1-methylpiperidin-2-yl]carbonyl}-L-isoleucyl)amino]-1-[4-({(2S)-1-[(methylsulfonyl)amino]-3-phenylpropan-2-yl}carbamoyl)-1,3-thiazol-2-yl]pentyl acetate] the same measures were 0.255 nM, 1.7 nM and 0.459 nM.
For the compound `CC[C@H](C)[C@H](NC(=O)[C@H]1CCCCN1C)C(=O)N(C)[C@H](C[C@@H](OC(C)=O)c1nc(C(=O)N[C@@H](Cc2ccccc2)CN2CCOCC2)cs1)C(C)C` [#B40, (1R,3R)-4-methyl-3-[methyl(N-{[(2R)-1-methylpiperidin-2-yl]carbonyl}-L-isoleucyl)amino]-1-[4-({(2S)-1-(morpholin-4-yl)-3-phenylpropan-2-yl]carbamoyl}-1,3-thiazol-2-yl)pentyl acetate], the IC50 came to 0.308 nM in assay [1] (96 h), 2.4 nM in assay [4] and 0.485 nM in assay [3] (96 h).
Turning to `CC[C@H](C)[C@H](NC(=O)[C@@]1(C)CCCN1C)C(=O)N(C)[C@H](C[C@@H](OC(C)=O)c1nc(C(=O)N[C@@H](Cc2ccccc2)C[C@H](C)C(=O)O)cs1)C(C)C` [#B8, 1,2-dimethyl-D-prolyl-N-[(1R,3R)-1-(acetyloxy)-1-(4-{[(2R,4S)-4-carboxy-1-phenylpentan-2-yl]carbamoyl}-1,3-thiazol-2-yl)-4-methylpentan-3-yl]-N-methyl-L-isoleucinamide], the values for the IC50 in assay [1] (96 h), in assay [4] and in assay [3] (96 h) were 0.063 nM, 1.8 nM and 0.104 nM, respectively.
As for `CC[C@H](C)[C@H](NC(=O)[C@H]1CCCCN1C)C(=O)N(C)[C@H](C[C@@H](OC(C)=O)c1nc(C(=O)NN(Cc2ccccc2)CC(C)C(=O)O)cs1)C(C)C` (stereo partly drawn) [#B4, 3-{2-[(2-{(1R,3R)-1-(acetyloxy)-4-methyl-3-[methyl(N-{[(2R)-1-methylpiperidin-2-yl]carbonyl}-L-isoleucyl)amino]pentyl}-1,3-thiazol-4-yl)carbonyl]-1-benzylhydrazinyl}-2-methylpropanoic Acid], the IC50 is 2.39 nM in assay [1] (96 h), 4.6 nM in assay [4] and 3.38 nM in assay [3] (96 h).
For `CCOC(=O)c1ncoc1[C@H](Cc1ccccc1)NC(=O)c1csc([C@@H](C[C@H](C(C)C)N(C)C(=O)[C@@H](NC(=O)[C@H]2CCCCN2C)[C@@H](C)CC)OC(C)=O)n1` [#B39, ethyl 5-[(1S)-1-{[(2-{(1R,3R)-1-(acetyloxy)-4-methyl-3-[methyl(N-{[(2R)-1-methylpiperidin-2-yl]carbonyl}-L-isoleucyl)amino]pentyl}-1,3-thiazol-4-yl)carbonyl]amino}-2-phenylethyl]-1,3-oxazole-4-carboxylate], the IC50 in assay [1] (96 h) amounted to 0.602 nM; in assay [4] it was 4.7 nM; in assay [3] (96 h), 1.39 nM.

One may read the IC50 as the concentration that inhibits the measured activity by half.
